Measurements: ChEMBL document CHEMBL1130333, “On the mechanism of chorismate mutases: Revisiting structural requirements for catalysis” (Bioorg Med Chem Lett, 1997)
pKi: −log10 of the molar value.

Tests used:
[1] = Rearrangement half-life at pH of 7.4 was determined; assay type: ADME; conditions: pH 7.4
[2] = The compound was tested for inhibition of Bacillus subtilis chorismate mutase (BcCM); weak competitive inhibitor
[3] = Rearrangement half-life at pH of 7.8 was determined; assay type: ADME; conditions: pH 7.8

half-life [1]: 1.7 h
pKi [2]: 3.30
half-life [3]: 3.1 h
Compound: C=C(O[C@@H]1C=CC=C[C@H]1O)C(=O)[O-].[Na+]
